Experimental data as given in ChEMBL document CHEMBL4610050, “Development of novel NLRP3-XOD dual inhibitors for the treatment of gout” (Bioorg Med Chem Lett, 2020).
Active and inactive are the calls of the source. No cut-off for these calls is given here.

How the values were obtained:
[1] = biological target: NACHT, LRR and PYD domains-containing protein 3 (Homo sapiens, UniProt Q96P20); assay: Inhibition of NLRP3 in human THP1 cells assessed as inhibition of MSU-induced IL-1beta production; format: cell-based, THP-1
[2] = Cytotoxicity against human THP-1 cells; format: cell-based
[3] = test system: Mus musculus; assay: In vivo inhibition of xanthine oxidase in potassium oxonate-induced hyperuricemia mouse model assessed as reduction enzyme activity in liver at 10 mg/kg relative to control; format: functional
[4] = test system: Rattus norvegicus; assay: Antiarthritic activity against MSU-induced acute gout arthritis rat model assessed as degree of ankle joint swelling at 20 mg/kg after 4 hrs (reference value: 8.8 +/- 1.7); format: functional
[5] = test system: Mus musculus; assay: Antiarthritic activity in potassium oxonate-induced hyperuricemia mouse model assessed as reduction in uric acid level in serum at 5 to 20 mg/kg; format: functional, organism-based
[6] = biological target: T1, Xanthine dehydrogenase/oxidase (Homo sapiens, UniProt P47989); assay: Competitive inhibition of xanthine oxidase (unknown origin) by Lineweaver-Burk plot analysis
[7] = test system: Mus musculus; assay: In vivo inhibition of xanthine oxidase in mouse assessed as reduction of enzyme activity in liver at 5 mg/kg relative to control; format: functional
[8] = test system: Rattus norvegicus; assay: Antiarthritic activity against MSU-induced acute gout arthritis rat model assessed as degree of ankle joint swelling at 20 mg/kg after 48 hrs (reference value: 3.4 +/- 0.5); format: functional
[9] = organism: Rattus norvegicus; assay: Down regulation of MSU-induced NLRP3 protein expression in synovial tissue of MSU-induced acute gout arthritis rat model by western blot analysis; format: functional, organism-based
[10] = test system: Rattus norvegicus; assay: Antiarthritic activity against MSU-induced acute gout arthritis rat model assessed as degree of ankle joint swelling at 20 mg/kg after 8 hrs (reference value: 7.8 +/- 1.6); format: functional
[11] = test system: Rattus norvegicus; assay: Antiarthritic activity against MSU-induced acute gout arthritis rat model assessed as degree of ankle joint swelling at 20 mg/kg after 24 hrs (reference value: 5.6 +/- 1.8); format: functional
[12] = test system: Rattus norvegicus; assay: Antiarthritic activity against MSU-induced acute gout arthritis rat model assessed as degree of ankle joint swelling at 10 mg/kg after 2 hrs (reference value: 7.5 +/- 1.6); format: functional
[13] = test system: Rattus norvegicus; assay: Antiarthritic activity against MSU-induced acute gout arthritis rat model assessed as degree of ankle joint swelling at 20 mg/kg after 2 hrs (reference value: 7.5 +/- 1.6); format: functional
[14] = test system: Mus musculus; assay: In vivo inhibition of xanthine oxidase in mouse assessed as reduction in enzyme activity in liver at 20 mg/kg relative to control; format: functional
[15] = test system: Rattus norvegicus; assay: Antiarthritic activity against MSU-induced acute gout arthritis rat model assessed as degree of ankle joint swelling at 5 mg/kg after 4 hrs (reference value: 8.8 +/- 1.7); format: functional
[16] = organism: Rattus norvegicus; assay: Down regulation of MSU-induced caspase-1 protein expression in synovial tissue of MSU-induced acute gout arthritis rat model by western blot analysis; format: functional, organism-based
[17] = test system: Mus musculus; assay: In vivo inhibition of xanthine oxidase in mouse assessed as reduction in enzyme activity in liver at 10 mg/kg relative to control; format: functional
[18] = test system: Rattus norvegicus; assay: Antiarthritic activity against MSU-induced acute gout arthritis rat model assessed as degree of ankle joint swelling at 10 mg/kg after 24 hrs (reference value: 5.6 +/- 1.8); format: functional
[19] = test system: Rattus norvegicus; assay: Antiarthritic activity against MSU-induced acute gout arthritis rat model assessed as degree of ankle joint swelling at 10 mg/kg after 8 hrs (reference value: 7.8 +/- 1.6); format: functional
[20] = test system: Rattus norvegicus; assay: Antiarthritic activity against MSU-induced acute gout arthritis rat model assessed as degree of ankle joint swelling at 10 mg/kg after 4 hrs (reference value: 8.8 +/- 1.7); format: functional
[21] = test system: Rattus norvegicus; assay: Antiarthritic activity against MSU-induced acute gout arthritis rat model assessed as degree of ankle joint swelling at 10 mg/kg after 12 hrs (reference value: 6.6 +/- 1.5); format: functional
[22] = test system: Rattus norvegicus; assay: Antiarthritic activity against MSU-induced acute gout arthritis rat model assessed as degree of ankle joint swelling at 5 mg/kg after 8 hrs (reference value: 7.8 +/- 1.6); format: functional
[23] = test system: Rattus norvegicus; assay: Antiarthritic activity against MSU-induced acute gout arthritis rat model assessed as degree of ankle joint swelling at 5 mg/kg after 12 hrs (reference value: 6.6 +/- 1.5); format: functional
[24] = test system: Rattus norvegicus; assay: Antiarthritic activity against MSU-induced acute gout arthritis rat model assessed as degree of ankle joint swelling at 20 mg/kg after 12 hrs (reference value: 6.6 +/- 1.5); format: functional
[25] = biological target: T1, Xanthine dehydrogenase/oxidase; assay: Inhibition of xanthine oxidase (unknown origin)
[26] = test system: Rattus norvegicus; assay: Antiarthritic activity against MSU-induced acute gout arthritis rat model assessed as degree of ankle joint swelling at 5 mg/kg after 2 hrs (reference value: 7.5 +/- 1.6); format: functional
[27] = test system: Mus musculus; assay: In vivo inhibition of xanthine oxidase in potassium oxonate-induced hyperuricemia mouse model assessed as reduction in enzyme activity in liver at 20 mg/kg relative to control; format: functional
[28] = organism: Rattus norvegicus; assay: Down regulation of MSU-induced ASC protein expression in synovial tissue of MSU-induced acute gout arthritis rat model by western blot analysis; format: functional, organism-based
[29] = test system: Rattus norvegicus; assay: Antiarthritic activity against MSU-induced acute gout arthritis rat model assessed as degree of ankle joint swelling at 10 mg/kg after 48 hrs (reference value: 3.4 +/- 0.5); format: functional
[30] = test system: Rattus norvegicus; assay: Antiarthritic activity against MSU-induced acute gout arthritis rat model assessed as degree of ankle joint swelling at 5 mg/kg after 48 hrs (reference value: 3.4 +/- 0.5); format: functional
[31] = test system: Mus musculus; assay: In vivo inhibition of xanthine oxidase in potassium oxonate-induced hyperuricemia mouse model assessed as reduction in enzyme activity in liver at 5 mg/kg relative to control; format: functional
[32] = test system: Rattus norvegicus; assay: Antiarthritic activity against MSU-induced acute gout arthritis rat model assessed as degree of ankle joint swelling at 5 mg/kg after 24 hrs (reference value: 5.6 +/- 1.8); format: functional
[33] = test system: Mus musculus; assay: Antiarthritic activity in potassium oxonate-induced hyperuricemia mouse model assessed as reduction in uric acid level in serum at 10 mg/kg; format: functional, organism-based
[34] = organism: Rattus norvegicus; assay: Antiarthritic activity against MSU-induced acute gout arthritis rat model assessed as degree of ankle joint swelling after 24 hrs (reference value: 5.6 +/- 1.8); format: functional
[35] = organism: Rattus norvegicus; assay: Antiarthritic activity against MSU-induced acute gout arthritis rat model assessed as degree of ankle joint swelling after 4 hrs (reference value: 8.8 +/- 1.7); format: functional
[36] = organism: Rattus norvegicus; assay: Antiarthritic activity against MSU-induced acute gout arthritis rat model assessed as degree of ankle joint swelling after 48 hrs (reference value: 3.4 +/- 0.5); format: functional
[37] = test system: Rattus norvegicus; assay: Inhibition of MSU-induced NLRP3 protein expression in synovial tissue of MSU-induced acute gout arthritis rat model at 10 mg/kg by western blot analysis; format: functional, organism-based
[38] = organism: Rattus norvegicus; assay: Antiarthritic activity against MSU-induced acute gout arthritis rat model assessed as degree of ankle joint swelling after 2 hrs (reference value: 7.5 +/- 1.6); format: functional
[39] = test system: Rattus norvegicus; assay: Inhibition of MSU-induced caspase-1 protein expression in synovial tissue of MSU-induced acute gout arthritis rat model at 10 mg/kg by western blot analysis; format: functional, organism-based
[40] = organism: Rattus norvegicus; assay: Antiarthritic activity against MSU-induced acute gout arthritis rat model assessed as degree of ankle joint swelling after 8 hrs (reference value: 7.8 +/- 1.6); format: functional
[41] = organism: Rattus norvegicus; assay: Antiarthritic activity in rat at model of acute gout arthritis assessed as effect on MSU-induced ankle joint swelling after 24 hrs (reference value: 5.6 +/- 1.8); format: functional
[42] = test system: Rattus norvegicus; assay: Inhibition of MSU-induced ASC protein expression in synovial tissue of MSU-induced acute gout arthritis rat model at 10 mg/kg by western blot analysis; format: functional, organism-based

T1 sequence (P47989 whole entry): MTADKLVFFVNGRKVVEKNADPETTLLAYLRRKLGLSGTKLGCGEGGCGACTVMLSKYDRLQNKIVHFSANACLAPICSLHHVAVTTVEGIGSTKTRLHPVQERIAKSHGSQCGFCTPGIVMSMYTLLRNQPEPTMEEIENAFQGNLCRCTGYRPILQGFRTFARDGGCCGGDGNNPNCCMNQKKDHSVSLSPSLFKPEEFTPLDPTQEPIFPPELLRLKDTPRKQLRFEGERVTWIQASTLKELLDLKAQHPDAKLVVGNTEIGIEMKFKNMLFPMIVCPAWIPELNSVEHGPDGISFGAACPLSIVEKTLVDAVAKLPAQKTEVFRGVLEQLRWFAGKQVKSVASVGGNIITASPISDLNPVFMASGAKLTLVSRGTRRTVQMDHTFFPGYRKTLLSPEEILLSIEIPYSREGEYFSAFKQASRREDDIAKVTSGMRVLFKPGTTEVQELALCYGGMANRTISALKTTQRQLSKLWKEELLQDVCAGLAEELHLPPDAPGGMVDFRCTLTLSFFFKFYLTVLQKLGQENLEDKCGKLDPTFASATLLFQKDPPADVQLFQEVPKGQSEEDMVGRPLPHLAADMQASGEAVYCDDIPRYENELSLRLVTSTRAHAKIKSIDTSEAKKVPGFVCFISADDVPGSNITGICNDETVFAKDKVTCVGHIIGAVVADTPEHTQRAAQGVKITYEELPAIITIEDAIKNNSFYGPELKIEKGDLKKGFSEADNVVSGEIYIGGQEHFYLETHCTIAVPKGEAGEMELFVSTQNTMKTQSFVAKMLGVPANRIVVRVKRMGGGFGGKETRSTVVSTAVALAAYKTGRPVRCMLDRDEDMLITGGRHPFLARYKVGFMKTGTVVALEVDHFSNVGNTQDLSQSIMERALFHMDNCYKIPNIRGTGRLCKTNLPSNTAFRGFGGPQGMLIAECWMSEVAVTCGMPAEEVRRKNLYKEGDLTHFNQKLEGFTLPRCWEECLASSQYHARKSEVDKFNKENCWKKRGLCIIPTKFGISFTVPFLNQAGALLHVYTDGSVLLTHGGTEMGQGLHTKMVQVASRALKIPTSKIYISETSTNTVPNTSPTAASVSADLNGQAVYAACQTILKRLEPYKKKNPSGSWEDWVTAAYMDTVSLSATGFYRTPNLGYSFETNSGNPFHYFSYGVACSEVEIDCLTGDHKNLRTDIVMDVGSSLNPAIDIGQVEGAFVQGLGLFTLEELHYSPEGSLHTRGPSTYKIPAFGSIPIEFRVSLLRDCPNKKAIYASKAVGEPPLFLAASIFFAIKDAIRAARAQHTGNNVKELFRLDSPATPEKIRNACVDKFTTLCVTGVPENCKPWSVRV
Chain of NACHT, LRR and PYD domains-containing protein 3 (Q96P20 whole entry, the tested form may be a part): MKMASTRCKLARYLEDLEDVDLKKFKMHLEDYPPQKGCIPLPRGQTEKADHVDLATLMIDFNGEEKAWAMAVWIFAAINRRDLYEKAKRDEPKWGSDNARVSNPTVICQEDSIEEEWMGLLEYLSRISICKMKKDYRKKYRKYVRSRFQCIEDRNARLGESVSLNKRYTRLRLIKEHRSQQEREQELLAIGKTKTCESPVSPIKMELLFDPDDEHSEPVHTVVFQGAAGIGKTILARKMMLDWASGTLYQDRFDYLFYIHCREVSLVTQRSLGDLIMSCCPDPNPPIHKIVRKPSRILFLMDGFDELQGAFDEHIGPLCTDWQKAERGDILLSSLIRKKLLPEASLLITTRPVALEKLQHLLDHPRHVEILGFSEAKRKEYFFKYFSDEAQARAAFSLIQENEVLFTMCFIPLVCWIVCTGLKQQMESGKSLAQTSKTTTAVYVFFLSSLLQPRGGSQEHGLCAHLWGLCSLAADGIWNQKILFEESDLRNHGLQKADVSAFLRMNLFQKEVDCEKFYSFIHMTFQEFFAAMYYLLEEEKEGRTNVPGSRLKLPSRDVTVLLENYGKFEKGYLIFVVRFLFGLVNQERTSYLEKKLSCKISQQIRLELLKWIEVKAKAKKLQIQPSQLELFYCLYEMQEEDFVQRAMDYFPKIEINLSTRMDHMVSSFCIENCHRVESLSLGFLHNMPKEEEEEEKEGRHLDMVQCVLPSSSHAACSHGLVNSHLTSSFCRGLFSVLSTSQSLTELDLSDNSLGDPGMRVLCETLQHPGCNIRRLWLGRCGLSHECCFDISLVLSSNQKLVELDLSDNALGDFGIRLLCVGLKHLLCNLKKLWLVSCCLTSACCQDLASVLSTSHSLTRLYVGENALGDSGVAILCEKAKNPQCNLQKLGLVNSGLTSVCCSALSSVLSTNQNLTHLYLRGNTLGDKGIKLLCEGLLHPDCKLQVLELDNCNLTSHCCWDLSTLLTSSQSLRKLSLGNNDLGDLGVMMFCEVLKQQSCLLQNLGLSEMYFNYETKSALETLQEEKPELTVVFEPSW

With `O=C(/C=C/c1ccc(O)cc1)c1ccc(O)cc1O` [ISOLIQUIRITIGENIN] the IC50 [1] was 10.1 µM and the CC50 [2] was 250 µM.
With `COc1ccc(S(=O)(=O)N/N=C(\C)c2nc3ccccc3o2)cc1` the inhibition in vivo at 10 mg/kg [3] was 30.6%, the Activity [4] was 5 and the Activity [5] was “Active”. For the same molecule, the “inhibition (INH)” value [6] was “Active”, the inhibition in vivo at 5 mg/kg [7] was 3.6% and the Activity [8] was 1.6. The inhibition [9] was “Dose-dependent effect”, the Activity [10] was 4.2 and the Activity [11] was 2.2. For the same molecule, the Activity [12] was 6, the IC50 [1] was 7.5 µM and the Activity [13] was 5.5. For the same molecule, the inhibition in vivo at 20 mg/kg [14] was 7.6%, the Activity [15] was 6.8 and the inhibition [16] was “Dose-dependent effect”. For the same molecule, the inhibition in vivo at 10 mg/kg [17] was 4.6%, the Activity [18] was 2.5 and the Activity [19] was 5.4. It also gave an Activity [20] of 6.1, an Activity [21] of 4.5 and a CC50 [2] of 250 µM. The Activity [22] was 5.9, the Activity [23] was 6 and the Activity [24] was 3.9. The IC50 [25] was 4.2 µM, the Activity [26] was 6.5 and the inhibition in vivo at 20 mg/kg [27] was 44.1%. The inhibition [28] was “Dose-dependent effect”, the Activity [29] was 1.8 and the Activity [30] was 2.9. For the same molecule, the inhibition in vivo at 5 mg/kg [31] was 19.6% and the Activity [32] was 4.9.
Work on `C/C(=N\NS(=O)(=O)c1ccccc1)c1nc2ccccc2o1` yielded an IC50 [25] greater than 50 µM.
`CCCCS(=O)(=O)N/N=C(\C)c1nc2ccccc2o1` showed an IC50 [25] greater than 50 µM.
Work on `C/C(=N\NS(=O)(=O)c1cccc([N+](=O)[O-])c1)c1nc2ccccc2o1` yielded an IC50 [25] greater than 50 µM.
In the case of `COc1ccc(S(=O)(=O)N/N=C(\C)c2nc3ccccc3[nH]2)cc1`, the IC50 [25] is reported as greater than 50 µM.
In the case of `COc1ccc(C(=O)O/N=C(\C)c2nc3ccccc3[nH]2)cc1`, the IC50 [25] is reported as greater than 50 µM.
Molecule `C/C(=N\NS(=O)(=O)c1ccc(Br)cc1)c1nc2ccccc2o1` has an IC50 [25] greater than 50 µM.
Molecule `C/C(=N\NS(=O)(=O)c1ccc(C)cc1)c1nc2ccccc2o1` has a CC50 [2] of 250 µM.
With `C/C(=N\OC(=O)Cc1ccccc1)c1nc2ccccc2[nH]1` the IC50 [25] was greater than 50 µM.
With `Oc1ncnc2[nH]ncc12` [ALLOPURINOL] the Activity [33] was “Active”, the inhibition in vivo at 10 mg/kg [3] was 47.9% and the inhibition in vivo at 10 mg/kg [17] was 25.3%.
Work on `C/C(=N\NS(=O)(=O)c1ccccc1)c1nc2ccccc2[nH]1` yielded an IC50 [25] greater than 50 µM.
For `C/C(=N\NS(=O)(=O)c1ccc([N+](=O)[O-])cc1)c1nc2ccccc2o1`, the IC50 [25] was greater than 50 µM.
In the case of `COc1cc2c(c(OC)c1OC)-c1ccc(OC)c(=O)cc1[C@@H](NC(C)=O)CC2` [COLCHICINE], the Activity [34] is reported as 3.5, the Activity [35] is reported as 4.3 and the Activity [36] is reported as 2. The inhibition [37] was “Active”, the Activity [38] was 4.9 and the inhibition [39] was “Active”. The Activity [40] was 4, the Activity [41] was 2.8 and the inhibition [42] was “Active”.
Molecule `C/C(=N\NS(=O)(=O)c1ccc(Br)cc1)c1nc2ccccc2[nH]1` has an IC50 [25] greater than 50 µM.
In the case of `C/C(=N\NS(=O)(=O)c1ccc([N+](=O)[O-])cc1)c1nc2ccccc2[nH]1`, the IC50 [25] is reported as greater than 50 µM.
In the case of `CCCS(=O)(=O)N/N=C(\C)c1nc2ccccc2[nH]1`, the IC50 [25] is reported as greater than 50 µM.
